Experiments:
[1] = Long term storage stability at 2-8° C.; format: physicochemical; details: storage at 2-8° C.
[2] = Exposure of the solid form to 20-80% relative humidity for 7 days at room temperature; format: physicochemical; details: exposed to 20-80% RH for 7 days at room temperature

Substance	long term stability [1]	deliquescence [2]	polymorphic stability [2]
Lucerastat: Salicylic acid [Lucerastat: Salicylic acid Form LC-2]	at least 1 year	–	–
Lucerastat: L-Pyroglutamic acid	at least 1 year	does not deliquesce	polymorphically stable
